Reference: PubChem BioAssay AID248 (DTP/NCI, 2004)
Values joined by “and” are separate entries in the source; they are usually repeats but may differ in a detail not shown here. Equal values may be shown once. Toxic doses and inconclusive results are not listed.

Test system: L1210 leukemia ip in BDF1 mice, survival T/C
Experiment: NCI In Vivo Anticancer Drug Screen. Data for tumor model L1210 Leukemia (intraperitoneal) in B6D2F1 (BDF1) mice
Settings: endpoint: mean survival time, higher = longer survival
How it was run: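 Read-out is survival time, reported as the treated-group measurement over the vehicle-control measurement.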

[1] = dose: 100.0 mg/kg/injection, schedule: Q04DX003 (ip), vehicle: saline with Tween-80
[2] = dose: 100.0 mg/kg/injection, schedule: Q01DX009 (ip), vehicle: Klucel (hydroxypropylcellulose) (HPC)
[3] = dose: 200.0 mg/kg/injection, schedule: Q01DX001 (ip), vehicle: saline with Tween-80
[4] = dose: 400.0 mg/kg/injection, schedule: Q01DX001 (ip), vehicle: saline with Tween-80
[5] = dose: 100.0 mg/kg/injection, schedule: Q04DX003 (ip), vehicle: saline
[6] = dose: 200.0 mg/kg/injection, schedule: Q04DX003 (ip), vehicle: saline
[7] = dose: 400.0 mg/kg/injection, schedule: Q04DX003 (ip), vehicle: saline

Q: For `CCCCNC(=NC)c1ccc(NC(=O)Nc2ccc(NC(=O)Nc3ccc(C(=NC)NCCCC)cc3)cc2)cc1`, which T/C (dose: 2.0 mg/kg/injection, schedule: Q01DX Z (ip), vehicle: methylcellulose (MC)) is on record?
A: 103 % of control

Q: What about the T/C (dose: 3.9 mg/kg/injection, schedule: Q01DX Z (ip), vehicle: methylcellulose (MC)) of the same compound?
A: 96 % of control

Q: Which results are given for `Nc1ncnc2c1ncn2CCCN1C(=O)c2ccccc2C1=O`?
A: T/C [1]: 96 % of control; T/C (dose: 200.0 mg/kg/injection, schedule: Q04DX003 (ip), vehicle: saline with Tween-80): 93 % of control; T/C (dose: 400.0 mg/kg/injection, schedule: Q04DX003 (ip), vehicle: saline with Tween-80): 89 % of control

Q: With `CC(C)CCS(=O)(=O)O` as the compound, how does the T/C (dose: 50.0 mg/kg/injection, schedule: Q01DX001 (ip), vehicle: saline) read?
A: 104 % of control

Q: And the T/C (dose: 100.0 mg/kg/injection, schedule: Q01DX001 (ip), vehicle: saline)?
A: 104 % of control

Q: And the T/C (dose: 200.0 mg/kg/injection, schedule: Q01DX001 (ip), vehicle: saline)?
A: 98 % of control

Q: And the T/C (dose: 400.0 mg/kg/injection, schedule: Q01DX001 (ip), vehicle: saline)?
A: 102 % of control

Q: `Cc1ccc(NP(N)(=O)Nc2ccc(C)cc2)cc1` was tested. Which T/C (dose: 50.0 mg/kg/injection, schedule: Q01DX001 (ip), vehicle: alcohol) did it give?
A: 102 % of control

Q: What about the T/C (dose: 100.0 mg/kg/injection, schedule: Q01DX001 (ip), vehicle: alcohol) of the same compound?
A: 102 % of control

Q: And the T/C (dose: 200.0 mg/kg/injection, schedule: Q01DX001 (ip), vehicle: alcohol)?
A: 108 % of control

Q: What about the T/C (dose: 400.0 mg/kg/injection, schedule: Q01DX001 (ip), vehicle: alcohol) of the same compound?
A: 96 % of control

Q: With `CC(=O)Nc1nc(C)c(CCCNS(=O)(=O)c2ccc([N+](=O)[O-])cc2)c(=O)[nH]1` as the compound, how does the T/C (dose: 100.0 mg/kg/injection, schedule: Q01DX009 (ip), vehicle: gum acacia) read?
A: 90 % of control

Q: What about the T/C (dose: 200.0 mg/kg/injection, schedule: Q01DX009 (ip), vehicle: gum acacia) of the same compound?
A: 88 % of control

Q: And the T/C (dose: 400.0 mg/kg/injection, schedule: Q01DX009 (ip), vehicle: gum acacia)?
A: 87 % of control

Q: With `O=C(Cc1ccccc1)Nc1ccc(Cl)cc1C(=O)c1ccccc1` as the compound, how does the T/C (dose: 100.0 mg/kg/injection, schedule: Q04DX002 (ip), vehicle: saline) read?
A: 101 % of control

Q: What about the T/C (dose: 200.0 mg/kg/injection, schedule: Q04DX002 (ip), vehicle: saline) of the same compound?
A: 93 % of control

Q: And the T/C (dose: 400.0 mg/kg/injection, schedule: Q04DX002 (ip), vehicle: saline)?
A: 90 % of control

Q: Which results are given for `COc1ccccc1NC(=O)NCCN1CCOCC1`?
A: T/C [2]: 103 % of control; T/C (dose: 200.0 mg/kg/injection, schedule: Q01DX009 (ip), vehicle: Klucel (hydroxypropylcellulose) (HPC)): 95 % of control

Q: For `N#CCN(CC#N)CCCN(CC#N)CC#N`, which T/C (dose: 25.0 mg/kg/injection, schedule: Q01DX001 (ip), vehicle: saline with Tween-80) is on record?
A: 96 % of control

Q: What about the T/C (dose: 50.0 mg/kg/injection, schedule: Q01DX001 (ip), vehicle: saline with Tween-80) of the same compound?
A: 102 % of control

Q: What about the T/C [3] of the same compound?
A: 102 % of control and 90 % of control

Q: What about the T/C [4] of the same compound?
A: 93 % of control

Q: With `CC(C)C(C)C(N)C(=O)O` (stereo unspecified) as the compound, how does the T/C (dose: 100.0 mg/kg/injection, schedule: Q01DX001 (ip), vehicle: other) read?
A: 101 % of control

Q: And the T/C (dose: 200.0 mg/kg/injection, schedule: Q01DX001 (ip), vehicle: other)?
A: 95 % of control

Q: And the T/C (dose: 400.0 mg/kg/injection, schedule: Q01DX001 (ip), vehicle: other)?
A: 106 % of control

Q: How did the T/C (dose: 50.0 mg/kg/injection, schedule: Q01DX009 (ip), vehicle: saline with Tween-80) turn out when `Clc1ccccc1C=NCC1CCC(CN=Cc2ccccc2Cl)CC1` (stereo unspecified) was run?
A: 92 % of control and 100 % of control

Q: What about the T/C (dose: 100.0 mg/kg/injection, schedule: Q01DX001 (ip), vehicle: saline with Tween-80) of the same compound?
A: 106 % of control

Q: And the T/C (dose: 100.0 mg/kg/injection, schedule: Q01DX009 (ip), vehicle: saline with Tween-80)?
A: 92 % of control

Q: What about the T/C (dose: 100.0 mg/kg/injection, schedule: Q04DX002 (ip), vehicle: saline with Tween-80) of the same compound?
A: 104 % of control and 88 % of control

Q: What about the T/C [3] of the same compound?
A: 93 % of control

Q: What about the T/C (dose: 200.0 mg/kg/injection, schedule: Q01DX009 (ip), vehicle: saline with Tween-80) of the same compound?
A: 90 % of control

Q: What about the T/C (dose: 200.0 mg/kg/injection, schedule: Q04DX002 (ip), vehicle: saline with Tween-80) of the same compound?
A: 100 % of control

Q: What about the T/C [4] of the same compound?
A: 98 % of control

Q: What about the T/C (dose: 400.0 mg/kg/injection, schedule: Q04DX002 (ip), vehicle: saline with Tween-80) of the same compound?
A: 89 % of control

Q: With `Nc1ncnc2c1ncn2C(C=O)OC(C=O)CO` (stereo unspecified) as the compound, how does the T/C (dose: 4.37 mg/kg/injection, schedule: Q01DX009 (ip), vehicle: water) read?
A: 123 % of control

Q: What about the T/C (dose: 4.37 mg/kg/injection, schedule: Q01DX Z (ip), vehicle: water) of the same compound?
A: 123 % of control

Q: And the T/C (dose: 8.75 mg/kg/injection, schedule: Q01DX Z (ip), vehicle: water)?
A: 157 % of control

Q: What about the T/C (dose: 8.8 mg/kg/injection, schedule: Q01DX Z (ip), vehicle: carboxymethylcellulose (CMC)) of the same compound?
A: 115 % of control

Q: What about the T/C (dose: 13.3 mg/kg/injection, schedule: Q01DX Z (ip), vehicle: carboxymethylcellulose (CMC)) of the same compound?
A: 121 % of control

Q: What about the T/C (dose: 17.5 mg/kg/injection, schedule: Q01DX009 (ip), vehicle: water) of the same compound?
A: 172 % of control

Q: What about the T/C (dose: 17.5 mg/kg/injection, schedule: Q01DX Z (ip), vehicle: water) of the same compound?
A: 172 % of control

Q: What about the T/C (dose: 30.0 mg/kg/injection, schedule: Q01DX Z (ip), vehicle: carboxymethylcellulose (CMC)) of the same compound?
A: 116 % of control

Q: And the T/C (dose: 35.0 mg/kg/injection, schedule: Q01DX Z (ip), vehicle: water)?
A: 92 % of control

Q: And the T/C (dose: 42.0 mg/kg/injection, schedule: Q01DX Z (oral), vehicle: carboxymethylcellulose (CMC))?
A: 115 % of control

Q: What about the T/C (dose: 45.0 mg/kg/injection, schedule: Q01DX Z (ip), vehicle: carboxymethylcellulose (CMC)) of the same compound?
A: 100 % of control and 101 % of control

Q: What about the T/C (dose: 64.0 mg/kg/injection, schedule: Q01DX Z (oral), vehicle: carboxymethylcellulose (CMC)) of the same compound?
A: 107 % of control

Q: What about the T/C (dose: 68.0 mg/kg/injection, schedule: Q01DX Z (ip), vehicle: carboxymethylcellulose (CMC)) of the same compound?
A: 105 % of control and 121 % of control

Q: And the T/C (dose: 79.0 mg/kg/injection, schedule: Q01DX009 (oral), vehicle: saline)?
A: 109 % of control

Q: And the T/C (dose: 96.0 mg/kg/injection, schedule: Q01DX Z (oral), vehicle: carboxymethylcellulose (CMC))?
A: 109 % of control

Q: And the T/C (dose: 119.0 mg/kg/injection, schedule: Q01DX009 (oral), vehicle: saline)?
A: 109 % of control

Q: And the T/C (dose: 144.0 mg/kg/injection, schedule: Q01DX Z (oral), vehicle: carboxymethylcellulose (CMC))?
A: 96 % of control

Q: What about the T/C (dose: 178.0 mg/kg/injection, schedule: Q01DX009 (oral), vehicle: saline) of the same compound?
A: 112 % of control

Q: `O=C(NNc1c(Cl)cc(Cl)cc1Cl)C(O)C(O)C(O)C(O)CO` (stereo unspecified) was tested. Which T/C [5] did it give?
A: 91 % of control

Q: And the T/C [6]?
A: 87 % of control

Q: What about the T/C [7] of the same compound?
A: 87 % of control

Q: With `CN(C)C(=O)NCC[N+](C)(C)C` as the compound, how does the T/C (dose: 100.0 mg/kg/injection, schedule: Q01DX009 (ip), vehicle: saline) read?
A: 100 % of control

Q: And the T/C [5]?
A: 99 % of control

Q: What about the T/C (dose: 200.0 mg/kg/injection, schedule: Q01DX009 (ip), vehicle: saline) of the same compound?
A: 106 % of control

Q: And the T/C [6]?
A: 92 % of control

Q: What about the T/C (dose: 400.0 mg/kg/injection, schedule: Q01DX009 (ip), vehicle: saline) of the same compound?
A: 97 % of control

Q: What about the T/C [7] of the same compound?
A: 94 % of control

Q: With `CN(Cc1ccc(Cl)cc1)C(=O)Nc1cccc(C(F)(F)F)c1` as the compound, how does the T/C (dose: 25.0 mg/kg/injection, schedule: Q01DX009 (ip), vehicle: Klucel (hydroxypropylcellulose) (HPC)) read?
A: 96 % of control

Q: And the T/C (dose: 50.0 mg/kg/injection, schedule: Q01DX009 (ip), vehicle: Klucel (hydroxypropylcellulose) (HPC))?
A: 100 % of control

Q: What about the T/C [2] of the same compound?
A: 100 % of control and 90 % of control

Q: What about the T/C (dose: 400.0 mg/kg/injection, schedule: Q01DX009 (ip), vehicle: Klucel (hydroxypropylcellulose) (HPC)) of the same compound?
A: 88 % of control

Q: With `C1CCC(CCC(CCC2CCCCC2)CCC2CCCCC2)CC1` as the compound, how does the T/C (dose: 100.0 mg/kg/injection, schedule: Q01DX001 (ip), vehicle: Klucel (hydroxypropylcellulose) (HPC)) read?
A: 89 % of control

Q: What about the T/C (dose: 200.0 mg/kg/injection, schedule: Q01DX001 (ip), vehicle: Klucel (hydroxypropylcellulose) (HPC)) of the same compound?
A: 91 % of control

Q: And the T/C (dose: 400.0 mg/kg/injection, schedule: Q01DX001 (ip), vehicle: Klucel (hydroxypropylcellulose) (HPC))?
A: 91 % of control

Q: What does the source list for `CN(N(P(N)(Cl)(c1ccccc1)c1ccccc1)P(N)(Cl)(c1ccccc1)c1ccccc1)P(N)(Cl)(c1ccccc1)c1ccccc1`?
A: T/C (dose: 100.0 mg/kg/injection, schedule: Q01DX001 (ip), vehicle: steriod suspending solution): 113 % of control; T/C (dose: 200.0 mg/kg/injection, schedule: Q01DX001 (ip), vehicle: steriod suspending solution): 108 % of control

Q: What does the source list for `CCCCP(=O)(CCCC)Oc1cccc([N+](=O)[O-])c1`?
A: T/C (dose: 25.0 mg/kg/injection, schedule: Q04DX003 (ip), vehicle: saline with Tween-80): 97 % of control; T/C (dose: 50.0 mg/kg/injection, schedule: Q04DX003 (ip), vehicle: saline with Tween-80): 96 % of control; T/C [1]: 95 % of control and 102 % of control
